SMILES strings stand for the structures. Some results are limits rather than exact numbers.

One data set in a line: dog PK experiment. The following applies: in vivo; for bioavailability: dog PK experiment, 3 mg/kg, read-out: F value (bioavailability); for AUC: dog, dosed at 3 mg/kg. The text has this: Those of ordinary skill in the art are aware of the biological assays utililized to test the compounds of the invention. Regarding bioavailability data (F values), a more thorough explanation can be found in Rowland, M and Tozer, T Clinical Pharmacokinetics: Concepts and Applications Lippincott, Williams & Wilkins 3rd ed. 1995, (specifically covered on page 43).

The subject of data set [1] is HCV replicon with a D168V mutation in a 1a-H77 background. Description: transient replicon assay, D168V mutation in 1a-H77 background. Conditions: Hepatitis C virus, read-out: EC50 in a transient replicon assay with a D168V mutation in a 1a-H77 background. Format: cell-based, hepatitis C virus (genotype 1a-H77). The gist of the method: (§1)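 Transient transfection of mutant replicon RNA (1a-H77 with NS2–NS5B, or 1b-N with NS3–NS5B plus E1202G/S2204I) by electroporation into IFN-cured Huh7 cells, plated at 7.5×10^3 cells per well in DMEM with 5% FBS. Serial compound dilutions added 4 h post-transfection (0.5% DMSO final).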

The test system of data set [2] is HCV replicon with a D168E mutation in a 1a-H77 background. Description: transient replicon assay, D168E mutation in 1a-H77 background. The following applies: Hepatitis C virus, read-out: EC50 in a transient replicon assay with a D168E mutation in a 1a-H77 background. It is filed as cell-based, hepatitis C virus (genotype 1a-H77). A digest of the protocol: as §1
Data set [3] concerns HCV replicon with a R155K mutation in a 1a-H77 background. Briefly: transient replicon assay, R155K mutation in 1a-H77 background. The following applies: Hepatitis C virus, read-out: EC50 in a transient replicon assay with a R155K mutation in a 1a-H77 background. Format: cell-based, hepatitis C virus (genotype 1a-H77). A digest of the protocol:
as §1

For data set [4], the system named is HCV replicon with a R155K mutation in a 1b-N background. Briefly: transient replicon assay, R155K mutation in 1b-N background. It is filed as cell-based, hepatitis C virus (genotype 1b-N). Conditions: Hepatitis C virus, read-out: EC50 in a transient replicon assay with a R155K mutation in a 1b-N background. The method, then: Replicon cell lines can be maintained in Dulbecco's modified Eagles medium (DMEM) containing 100 IU/ml penicillin, […] streptomycin (Invitrogen), […] G418 (Invitrogen) and 10% (v/v) fetal bovine serum (FBS). Replicon-containing cells can be seeded into 96 well plates at a density of 5000 cells per well in 100 μl DMEM containing 5% FBS. The next day, the compound can be initially diluted in dimethyl sulfoxide (DMSO) to generate a 200× stock of the inhibitor in a series of 8 half-log dilutions. The dilution series can then be diluted 100-fold in the medium containing 5% FBS. […] The inhibitory effects of compounds against the replicons can be determined by measuring either the level of luciferase or HCV RNA. […] Luciferin solution (50 μl, Promega) is added, and luciferase activity is measured with a Victor II luminometer (Perkin-Elmer). To determine HCV RNA levels, RNA extractions can be performed using the CellsDirect kit (Invitrogen), and the HCV RNA copy number can be measured using the SuperScript III Platinum One-Step qRT-PCR system (Invitrogen) and primers specific to the HCV 5′ nontranslated region. Cytotoxicity can be determined by the 3-[4,5-dimethylhiazol-2-yl]-2,5-diphenyltetrazolium bromide (MTT) colorimetric assay as follows. […] The plates are incubated overnight and the optical density can be measured at 570 nm. […]
(In general: In antiviral work, replicon cells carry a viral genome segment that copies itself.)

Regarding `Cc1cc(C(=O)N[C@H]2CCCCC/C=C\[C@@H]3C[C@@]3(C(=O)NS(=O)(=O)C3(C)CC3)NC(=O)[C@@H]3C[C@@H](Oc4nc5cc(F)ccc5nc4C)CN3C2=O)no1` [Example 23, N-((2R,6S,13aS,14aR,16aS,Z)-2-(7-fluoro-3-methylquinoxalin-2-yloxy)-14a-(1-methylcyclopropylsulfonylcarbamoyl)-5,16-dioxo-1,2,3,5,6,7,8,9,10,11,13a,14,14a,15,16,16a-hexadecahydrocyclopropa[e]pyrrolo[1,2-a][1,4]diazacyclopentadecin-6-yl)-5-methylisoxazole-3-carboxamide], the bioavailability in the data set “dog PK experiment” stood at 86%. The compound further returned an AUC in “dog PK experiment” of 201000 ng·h/mL. Also, the EC50 is under 25 nM in data set [1], 3 to 20 nM in data set [2] and 1 to 10 nM in data set [3].

Consider `Cc1cc(C(=O)N[C@H]2CCCCC/C=C\[C@@H]3C[C@@]3(C(=O)NS(=O)(=O)C3CC3)NC(=O)[C@@H]3C[C@@H](Oc4nc5ccccc5nc4C(C)(F)F)CN3C2=O)no1` [Example 2, N-((2R,6S,13aS,14aR,16aS,Z)-14a-(cyclopropylsulfonylcarbamoyl)-2-(3-(1,1-difluoroethyl)quinoxalin-2-yloxy)-5,16-dioxo-1,2,3,5,6,7,8,9,10,11,13a,14,14a,15,16,16a-hexadecahydrocyclopropa[e]pyrrolo[1,2-a][1,4]diazacyclopentadecin-6-yl)-5-methylisoxazole-3-carboxamide], for which, in “dog PK experiment”, the bioavailability is over 100%. The compound further gave an AUC in the data set “dog PK experiment” of 4500 ng·h/mL. Further, the concentration giving a half-maximal response (EC50) in data set [1] was 25 to 50 nM; in data set [2] it was under 3 nM; in data set [3] it was under 1 nM.

For `CCc1nc2cccc(F)c2nc1O[C@@H]1C[C@H]2C(=O)N[C@]3(C(=O)NS(=O)(=O)C4(C)CC4)C[C@H]3/C=C\CCCCC[C@H](NC(=O)OC(C)(C)C)C(=O)N2C1` [Example 164, tert-butyl (2R,6S,13aS,14aR,16aS,Z)-2-(3-ethyl-8-fluoroquinoxalin-2-yloxy)-14a-(1-methylcyclopropylsulfonylcarbamoyl)-5,16-dioxo-1,2,3,5,6,7,8,9,10,11,13a,14,14a,15,16,16a-hexadecahydrocyclopropa[e]pyrrolo[1,2-a][1,4]diazacyclopentadecin-6-ylcarbamate], the EC50 fell in the range of 50 to 250 nM in data set [1], 20 to 50 nM in data set [2] and 1 to 10 nM in data set [4].

On to `Cc1cc(C(=O)N[C@H]2CCCCC/C=C\[C@@H]3C[C@@]3(C(=O)NS(=O)(=O)C3CC3)NC(=O)[C@@H]3C[C@@H](Oc4nc5cc(F)ccc5nc4C(C)(F)F)CN3C2=O)no1` [Example 117, N-((2R,6S,13aS,14aR,16aS,Z)-14a-(cyclopropylsulfonylcarbamoyl)-2-(3-(1,1-difluoroethyl)-7-fluoroquinoxalin-2-yloxy)-5,16-dioxo-1,2,3,5,6,7,8,9,10,11,13a,14,14a,15,16,16a-hexadecahydrocyclopropa[e]pyrrolo[1,2-a][1,4]diazacyclopentadecin-6-yl)-5-methylisoxazole-3-carboxamide], for which the bioavailability in the data set “dog PK experiment” amounted to 63%. The AUC in the data set “dog PK experiment” came out at 63000 ng·h/mL. Further, the EC50 was under 25 nM in data set [1], under 3 nM in data set [2] and under 1 nM in data set [3].

For orientation: bioavailability means dose-corrected exposure relative to a reference, in per cent. Usually AUC stands for the area under the concentration-time curve, a measure of exposure. Usually EC50 stands for the midpoint of the concentration-response curve.

Source of the values: patent US9493506B2 (Enanta Pharmaceuticals, Inc., priority 2010, dated 2016).
